Results taken from PubChem BioAssay (NCI).
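Values below derive from 48-hour exposures of cells grown in 96-well plates, with endpoints linearly interpolated between the two concentrations bracketing the appropriate inhibition level. At the TGI there is no net growth.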

Columns and labels:
Assay in all cases: NCI-60 cell line screen, 48 h
SK-MEL-28 melanoma = tested on: SK-MEL-28 melanoma
MALME-3M melanoma = tested on: MALME-3M melanoma
HCC-2998 colon = tested on: HCC-2998 colon
SK-MEL-2 melanoma = tested on: SK-MEL-2 melanoma
KM12 colon = tested on: KM12 colon
NCI/ADR-RES ovarian = tested on: NCI/ADR-RES ovarian
IGROV1 ovarian = tested on: IGROV1 ovarian
RXF 393 renal = tested on: RXF 393 renal
SF-295 CNS = tested on: SF-295 CNS
A549 NSCLC = tested on: A549 NSCLC
SN12C renal = tested on: SN12C renal
COLO 205 colon = tested on: COLO 205 colon
EKVX NSCLC = tested on: EKVX NSCLC
CAKI-1 renal = tested on: CAKI-1 renal
UO-31 renal = tested on: UO-31 renal
SNB-75 CNS = tested on: SNB-75 CNS
HCT-15 colon = tested on: HCT-15 colon
SF-268 CNS = tested on: SF-268 CNS
UACC-62 melanoma = tested on: UACC-62 melanoma
NCI-H522 lung = tested on: NCI-H522 lung
SK-MEL-5 melanoma = tested on: SK-MEL-5 melanoma
CCRF-CEM leukemia = tested on: CCRF-CEM leukemia
MCF7 breast = tested on: MCF7 breast
SNB-19 CNS = tested on: SNB-19 CNS
HL-60(TB) leukemia = tested on: HL-60(TB) leukemia
HS 578T breast = tested on: HS 578T breast
OVCAR-5 ovarian = tested on: OVCAR-5 ovarian
SR leukemia = tested on: SR leukemia
NCI-H460 lung = tested on: NCI-H460 lung
K-562 leukemia = tested on: K-562 leukemia
RPMI-8226 leukemia = tested on: RPMI-8226 leukemia
A498 renal = tested on: A498 renal
UACC-257 melanoma = tested on: UACC-257 melanoma
T-47D breast = tested on: T-47D breast
DU-145 prostate = tested on: DU-145 prostate
OVCAR-4 ovarian = tested on: OVCAR-4 ovarian
U251 CNS = tested on: U251 CNS
MDA-MB-435 = tested on: MDA-MB-435
MDA-N = tested on: MDA-N
SW-620 colon = tested on: SW-620 colon
LOX IMVI melanoma = tested on: LOX IMVI melanoma
OVCAR-3 ovarian = tested on: OVCAR-3 ovarian
NCI-H23 lung = tested on: NCI-H23 lung
M14 melanoma = tested on: M14 melanoma
HT29 colon = tested on: HT29 colon
MDA-MB-231 breast = tested on: MDA-MB-231 breast
BT-549 breast = tested on: BT-549 breast
HOP-62 NSCLC = tested on: HOP-62 NSCLC
HCT-116 colon = tested on: HCT-116 colon
NCI-H226 lung = tested on: NCI-H226 lung
PC-3 prostate = tested on: PC-3 prostate
SF-539 CNS = tested on: SF-539 CNS
SK-OV-3 ovarian = tested on: SK-OV-3 ovarian
TK-10 renal = tested on: TK-10 renal
HOP-92 NSCLC = tested on: HOP-92 NSCLC
OVCAR-8 ovarian = tested on: OVCAR-8 ovarian
786-0 renal = tested on: 786-0 renal
MOLT-4 leukemia = tested on: MOLT-4 leukemia
ACHN renal = tested on: ACHN renal

## c1ccc2cc(CN3CCC(C4CCN(Cc5ccc6ccccc6c5)CC4)CC3)ccc2c1
SK-MEL-28 melanoma
  TGI: 3.93 µM
MALME-3M melanoma
  TGI: 3.71 µM
HCC-2998 colon
  TGI: 3.13 µM
SK-MEL-2 melanoma
  TGI: 4.87 µM
KM12 colon
  TGI: 7.99 µM
NCI/ADR-RES ovarian
  TGI: 22.1 µM
IGROV1 ovarian
  TGI: 22.5 µM
RXF 393 renal
  TGI: 8.51 µM
SF-295 CNS
  TGI: 3.74 µM
A549 NSCLC
  TGI: 17.1 µM
SN12C renal
  TGI: 44.5 µM
COLO 205 colon
  TGI: 3.96 µM
EKVX NSCLC
  TGI: 29.6 µM
CAKI-1 renal
  TGI: 15 µM
UO-31 renal
  TGI: 3.03 µM
SNB-75 CNS
  TGI: 6.8 µM
HCT-15 colon
  TGI: 15.1 µM
SF-268 CNS
  TGI: 25.8 µM
UACC-62 melanoma
  TGI: 3.91 µM
NCI-H522 lung
  TGI: 4.28 µM
SK-MEL-5 melanoma
  TGI: 3.38 µM
CCRF-CEM leukemia
  TGI: > 43.4 µM
MCF7 breast
  TGI: 8.66 µM
SNB-19 CNS
  TGI: 27.2 µM
HL-60(TB) leukemia
  TGI: 4.45 µM
HS 578T breast
  TGI: 6.6 µM
OVCAR-5 ovarian
  TGI: 24.9 µM
SR leukemia
  TGI: 15.6 µM
NCI-H460 lung
  TGI: 11 µM
K-562 leukemia
  TGI: > 100 µM
RPMI-8226 leukemia
  TGI: 7.44 µM
A498 renal
  TGI: 26.2 µM
UACC-257 melanoma
  TGI: 3.68 µM
T-47D breast
  TGI: > 22.8 µM
DU-145 prostate
  TGI: 38.2 µM
OVCAR-4 ovarian
  TGI: 21.7 µM
U251 CNS
  TGI: 8.49 µM
MDA-MB-435
  TGI: 3.09 µM
MDA-N
  TGI: 3.91 µM
SW-620 colon
  TGI: 15.6 µM
LOX IMVI melanoma
  TGI: 13.2 µM
OVCAR-3 ovarian
  TGI: 11.1 µM
NCI-H23 lung
  TGI: 26.9 µM
M14 melanoma
  TGI: 3.71 µM
HT29 colon
  TGI: 6.42 µM
MDA-MB-231 breast
  TGI: 22.1 µM
BT-549 breast
  TGI: 27.4 µM
HOP-62 NSCLC
  TGI: 7.84 µM
HCT-116 colon
  TGI: 18.4 µM
NCI-H226 lung
  TGI: 33.1 µM
PC-3 prostate
  TGI: 22.9 µM
SF-539 CNS
  TGI: 4.15 µM
SK-OV-3 ovarian
  TGI: 22.4 µM
TK-10 renal
  TGI: 13.1 µM
HOP-92 NSCLC
  TGI: 12.2 µM
OVCAR-8 ovarian
  TGI: 17.9 µM
786-0 renal
  TGI: 11.1 µM
MOLT-4 leukemia
  TGI: 33.3 µM
ACHN renal
  TGI: 17 µM
